Values of other authors in PMC7489895 (Biochemical Journal, 2020).

How the values were obtained:
[1] = test system: MondoA; settings: skeletal myoblasts, in response to insulin; ref Ahn et al. [30]
[2] = test system: human skeletal muscle; settings: ref Ahn et al. [30]
[3] = target: importin α (Mus musculus, UniProt P52293); settings: read-out: KD, NLS - importin α

| Molecule | effect on nuclear localization of MondoA [1] | effect on intramuscular lipid accumulation [2] | Kd [3] [nM] |
| --- | --- | --- | --- |
| COc1ccc(-c2csc(NC(=O)c3ccc(OCC(=O)N4CCOCC4)c(OC)c3)n2)cc1 [SBI-477] | inhibits the nuclear localization of Mondo A | inhibits intramuscular lipid accumulation |  |
| P^126KKKRKV^132 [SV40] |  |  | 310 ± 150 |
| R^617KCYEAGMTLGARKLKKL^634 |  |  | 5000 ± 100 |
| K^155RPAATKKAGQAKKKK^170 (KRPAATKKAGQAKKKK; NLS; UniProt P05221 155-170, looked up, fragment) [Nucleoplasmin] |  |  | 190 ± 20 |
